# Numbered stars: 1 amine (or outer) side, 2 acyl side, 3 side chain; on linkers, the order of the positions; unused ones are H or OH. Bridge positions count the residues as written; N and C are the ends. Square brackets hold non-standard residues; d marks the D form. Peptide text beside a SMILES is read from it. I, II: the chains in the order shown. X1 = O=C(CCN1C(=O)CC([*:1])C1=O)NCCOCCOCCOCCOCCOCCOCCOCCOCCOCCOCCOCCNC(=O)CCN1C(=O)CC([*:2])C1=O
# How the values were obtained:
# [1] = system: C2C12 myotubes (Agrin-induced AChR clusters); assay: Agrin-induced AChR clusters in myotubes with tyrosine kinase inhibitors; assay type: cell-based, mouse; conditions: 10 pM recombinant rat agrin, inhibitor added simultaneously, 20 hours; low concentration range of 1 nM
# Description: The mouse myoblast-derived cell line C2C12 (CRL-1772) was purchased from the American Type Culture Collection and used. For subculture, Dulbecco's Modified Eagle Medium (DMEM, high glucose, GlutaMAX supplement, pyruvate; GIBCO) supplemented with 20% fetal bovine serum (FBS; GIBCO) was used. For passage, after the culture medium was removed by suction, adherent cells were washed with phosphate buffered saline (PBS(-)), and HBSS (GIBCO) containing no Mg^2+ and Ca^2+ and containing 0.25% trypsin and 1 mM ethylenediaminetetraacetic acid was added, and the mixture was reacted in a CO2 incubator (37°C, 5% CO2) for 5 minutes. The detached cells were collected and then centrifuged at 1000 rpm at 4°C for 5 minutes (Sorvall X4R Pro, Thermo Fisher Scientific Inc.). After the supernatant was removed by suction, the cells were suspended in fresh culture medium, and 100 µL was seeded into a 96-well plate (BioCoat Collagen I 96-well Black/Clear plate, Corning Inc.) and cultured in a CO2 incubator (37°C, 5% CO2) until reaching confluence, typically within 72 hours. Subsequently, the culture medium was removed and the first medium change was performed with DMEM containing 2% horse serum (GIBCO) for induction of myotube cell differentiation.
# A differentiation medium supplemented with an appropriate amount of the homodimer of the cyclic peptide MuSK7 (MuSK7 PEG11 dimer) was prepared in advance in a 96-well plate (Nunclon Δ Surface, 167008, Nunc), and used at 100 µL/well at the time of the second medium change in the process of inducing differentiation into myotubes. 20 hours after addition of the homodimer of the cyclic peptide MuSK7, the medium was removed, the cells were washed with PBS(-), and then fixed at room temperature for 15 minutes with PBS(-) containing 4% formaldehyde. After washing several times with 1% BSA-PBS(-), fluorescently labeled α-bungarotoxin (α-Btx, Alexa Fluor 488 conjugate; Invitrogen) was added to 1% BSA-PBS(-) at a final concentration of 100 nM, and after adding this to the wells, the mixture was allowed to stand at room temperature under a light-shielded condition for 30 minutes. After washing the cells several times with 1% BSA-PBS(-), 100 µL of PBS(-) was added to each well, and fluorescence observation was performed using a fluorescence imaging device. For observation of fluorescently labeled AChR clusters, an EVOS M7000 imaging system (Thermo Fisher Scientific Inc.) was used. During fluorescence image observation, a 10× objective lens was used, and tiff images of an area equivalent to 1 mm^2 were obtained. […] The average number of AChR clusters counted from the three tiff images derived from the same well was calculated and drawn on a graph.
# MuSK inhibitor candidates were searched in the KinaseNET database (http://www.kinasenet.ca/) published as an open resource by Kinexus Bioinformatics Corporation (Canada), and three tyrosine kinase inhibitors (AST-487, Foretinib, and Sorafenib) were identified. Next, groups were prepared in which 10 pM recombinant rat agrin protein (550-AG, R&D Systems) derived from C2C12 myotubes was added alone, or in which each tyrosine kinase inhibitor (3 nM) was added simultaneously, and detection and observation of Agrin-induced AChR clusters were performed 20 hours after compound addition (five types, Crizotinib, Linifanib, AST-1306, Dovitinib, and BMS-754807, were used as non-MuSK inhibitory tyrosine kinase inhibitors).
# [2] = system: C2C12 myotubes (AChR clusters); assay: Induction of AChR clusters in myotube cells by the MuSK7 homodimer, with or without AST-487; assay type: cell-based, mouse; conditions: in the presence of AST-487
# Description: (§1) The mouse myoblast-derived cell line C2C12 (CRL-1772) was purchased from the American Type Culture Collection and used. For subculture, Dulbecco's Modified Eagle Medium (DMEM, high glucose, GlutaMAX supplement, pyruvate; GIBCO) supplemented with 20% fetal bovine serum (FBS; GIBCO) was used. For passage, after the culture medium was removed by suction, adherent cells were washed with phosphate buffered saline (PBS(-)), and HBSS (GIBCO) containing no Mg^2+ and Ca^2+ and containing 0.25% trypsin and 1 mM ethylenediaminetetraacetic acid was added, and the mixture was reacted in a CO2 incubator (37°C, 5% CO2) for 5 minutes. […]
# A differentiation medium supplemented with an appropriate amount of the homodimer of the cyclic peptide MuSK7 (MuSK7 PEG11 dimer) was prepared in advance in a 96-well plate (Nunclon Δ Surface, 167008, Nunc), and used at 100 µL/well at the time of the second medium change in the process of inducing differentiation into myotubes. […] After washing the cells several times with 1% BSA-PBS(-), 100 µL of PBS(-) was added to each well, and fluorescence observation was performed using a fluorescence imaging device. […] During fluorescence image observation, a 10× objective lens was used, and tiff images of an area equivalent to 1 mm^2 were obtained. […] The average number of AChR clusters counted from the three tiff images derived from the same well was calculated and drawn on a graph. […]
# [3] = system: mouse myoblast-derived cell line C2C12; assay: Induction of AChR clusters in myotube cells and quantitative analysis (fluorescent α-bungarotoxin); assay type: cell-based; conditions: 20 hours after addition
# Description: as §1
# After washing several times with 1% BSA-PBS(-), fluorescently labeled α-bungarotoxin (α-Btx, Alexa Fluor 488 conjugate; Invitrogen) was added to 1% BSA-PBS(-) at a final concentration of 100 nM, and after adding this to the wells, the mixture was allowed to stand at room temperature under a light-shielded condition for 30 minutes. After washing the cells several times with 1% BSA-PBS(-), 100 µL of PBS(-) was added to each well, and fluorescence observation was performed using a fluorescence imaging device. […] During fluorescence image observation, a 10× objective lens was used, and tiff images of an area equivalent to 1 mm^2 were obtained. […] The average number of AChR clusters counted from the three tiff images derived from the same well was calculated and drawn on a graph.
# [4] = target: T1, human MuSK (Homo sapiens, UniProt O15146); assay: SPR binding activity test to human MuSK (Biacore); conditions: human MuSK, peptide homodimers
# T1 construct: DNA corresponding to the extracellular portion (amino acids 1-493) was amplified by a PCR method; made in house; host or cells: Expi293F cells
# T1 sequence (O15146 24-493): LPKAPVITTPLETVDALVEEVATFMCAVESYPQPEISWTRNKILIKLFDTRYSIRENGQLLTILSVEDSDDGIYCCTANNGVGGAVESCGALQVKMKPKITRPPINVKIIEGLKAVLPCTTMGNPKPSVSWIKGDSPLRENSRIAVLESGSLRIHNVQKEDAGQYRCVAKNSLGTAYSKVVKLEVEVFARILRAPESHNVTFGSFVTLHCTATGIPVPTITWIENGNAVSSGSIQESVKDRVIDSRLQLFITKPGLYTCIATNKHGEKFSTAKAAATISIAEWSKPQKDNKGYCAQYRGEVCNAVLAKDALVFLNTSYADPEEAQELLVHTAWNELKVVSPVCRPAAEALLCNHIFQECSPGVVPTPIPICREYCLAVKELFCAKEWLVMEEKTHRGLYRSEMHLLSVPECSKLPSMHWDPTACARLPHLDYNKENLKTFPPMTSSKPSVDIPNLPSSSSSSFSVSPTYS
# Procedure: The human MuSK protein (extracellular portion) was prepared as a recombinant protein as follows. Using a Flexi clone (FXC31275, Promega Corporation) encoding Human MuSK isoform 1 precursor (NCBI Reference Sequence: NP_005583.1) as a template, DNA corresponding to the extracellular portion (amino acids 1-493) was amplified by a PCR method. XhoI and EcoRI restriction enzyme recognition sequences were added to both the 5' and 3' ends of the amplified DNA sequence, and these were used for insertion into the multiple cloning site of a pCAG-Neo hIgG1-Fc plasmid (Fujifilm Wako Pure Chemical Corporation). This plasmid (pCAG-Neo hMuSK-Fc) enables expression of a chimeric protein of the secretory human MuSK extracellular portion and human IgG1 Fc (hMuSK-Fc; molecular weight of approximately 200 kDa) in animal cells. In practice, ExpiFectamine 293 reagent (Invitrogen) was used to transfect the pCAG-Neo hMuSK-Fc plasmid into Expi293F cells (Invitrogen), and shaking culture was carried out (for 6 days) in an incubator containing 8% CO2. Next, the culture supernatant was collected, centrifuged, and sterilized by filtration through a 0.22 µm filter. The obtained culture supernatant was subjected to Protein G purification, and finally, a purified hMuSK-Fc sample with 99.96% purity (AKTA-FPLC analysis) was obtained.
# The strength of binding between MuSK and the cyclic peptides was evaluated by quantitatively measuring the binding kinetics (binding affinity (dissociation constant) KD) of the cyclic peptides to MuSK immobilized on a sensor chip via an Fc tag, using surface plasmon resonance (SPR).
# According to the standard immobilization protocol provided by the manufacturer, Fc-tagged human/mouse/rat MuSK was immobilized on a Protein G chip or a Protein A chip (Cytiva). A running buffer for the monomer/dimer peptides contained 0.010 M phosphate, 0.14 M NaCl, 0.0027 M KCl, 0.05% (v/v) Tween 20, and 0.1% (v/v) DMSO. A running buffer for the monomer/dimer U-bodies contained 0.010 M phosphate, 0.14 M NaCl, 0.0027 M KCl, and 0.05% (v/v) Tween 20. A series of concentrations of each monomer peptide, dimer peptide, monomer U-body, and dimer U-body was injected as analytes. A 1:1 binding fitting analysis was applied using Biacore evaluation software, and ka, kd, and KD values were determined.
# Fc-tagged human MuSK was prepared according to the procedure described in Example 1(1). In addition, Fc-tagged mouse MuSK was used by expressing a nucleotide sequence encoding the Fc-tagged mouse MuSK extracellular domain (SEQ ID NO: 34). In addition, Fc-tagged rat MuSK was used as a chimeric protein of rat MuSK and an Fc protein, namely, Recombinant Rat MuSK Fc Chimera Protein (catalog number: 9847-MK-050, R&D Systems).
# The affinity of the U-bodies and their complexes obtained as described above for MuSK of human, rat, and mouse was evaluated (binding activity test). The test was carried out according to the procedure described in Example 1(3). However, for the complexes of U-bodies, surface plasmon resonance (SPR) analysis was carried out using a Biacore 8K (Cytiva).
SMILES,Agrin-induced AChR cluster formation [1],AChR cluster formation by the homodimer of the cyclic peptide MuSK7 [2],number of AChR clusters ([3]; compound concentration exceeded 1 µM),number of AChR clusters ([3]; concentration range from the pM order to 1 µM),koff [4] [s⁻¹],kon [4] [M⁻¹ s⁻¹],Kd ([4]; read-out: Kd) [nM]
CCN1CCN(Cc2ccc(NC(=O)Nc3ccc(Oc4cc(NC)ncn4)cc3)cc2C(F)(F)F)CC1 [AST-487],no AChR cluster formation was observed,no AChR clusters were detected,–,–,–,–,–
"CC(C)C[C@@H]1NC(=O)[C@H](CO)NC(=O)[C@H](C)NC(=O)[C@H](C(C)C)NC(=O)[C@H](C(C)C)NC(=O)[C@H](CC(N)=O)NC(=O)[C@H]([C@@H](C)O)NC(=O)[C@H](Cc2c[nH]cn2)NC(=O)[C@H](Cc2ccc(O)cc2)NC(=O)[C@H](CO)NC(=O)[C@@H]2CCCN2C(=O)[C@@H](Cc2ccc(O)cc2)NC(=O)CSC[C@@H](C(=O)N[C@@H](CSC2CC(=O)N(CCC(=O)NCCOCCOCCOCCOCCOCCOCCOCCOCCOCCOCCOCCNC(=O)CCN3C(=O)CC(SC[C@H](NC(=O)[C@@H]4CSCC(=O)N[C@H](Cc5ccc(O)cc5)C(=O)N5CCC[C@H]5C(=O)N[C@@H](CO)C(=O)N[C@@H](Cc5ccc(O)cc5)C(=O)N[C@@H](Cc5c[nH]cn5)C(=O)N[C@@H]([C@@H](C)O)C(=O)N[C@@H](CC(N)=O)C(=O)N[C@@H](C(C)C)C(=O)N[C@@H](C(C)C)C(=O)N[C@@H](C)C(=O)N[C@@H](CO)C(=O)N[C@@H](CC(C)C)C(=O)N[C@@H](CCCCN)C(=O)N[C@@H](CCCNC(=N)N)C(=O)N4)C(N)=O)C3=O)C2=O)C(N)=O)NC(=O)[C@H](CCCNC(=N)N)NC(=O)[C@H](CCCCN)NC1=O (stereo partly shown) [MuSK7 PEG11 dimer] (I: {CH2CO}-[dY]PSYHTNVVASLKRCC-NH2 / II: {CH2CO}-[dY]PSYHTNVVASLKRCC-NH2; linker I:16-II:16 via X1; thioether I:N-I:15, II:N-II:15)",–,–,conversely tended to decrease,increased in a dose-dependent manner,0.00051,390000,1.3
